Results taken from patent US20050227980A1, “Aralkyl and aralkylidene heterocyclic lactam and imides” (Pfizer Inc., priority 2003, published 2005).
Structures can show the parent of a compound that is named as a salt.

| melting point | SMILES |
| --- | --- |
| 178 to 181.4 °C | CN1CCN(c2cccc(F)c2CC2OCCN(c3ccc(C(C)(C)C)cc3)C2=O)CC1.Cl (stereo not drawn) [Example 28 (−)] |
| 169 to 171 °C | CN1CCN(c2ccccc2C=C2OCCN(c3ccc(C(C)(C)C)cc3)C2=O)CC1 [Example 5, 2-[2-(4-Methylpiperazin-1-yl)-benzylidene]-4-(4-tert-butylphenyl)-morpholin-3-one] |
| 107 to 108.7 °C | CN1CCN(c2c(F)cccc2CC2OCCN(c3ccc(C(C)(C)C)cc3)C2=O)CC1.Cl (racemic) [Example 30 (±)] |
| 215 to 216 °C | CN1CCN(c2ccccc2CC2OCCN(Cc3ccc(C(C)(C)C)cc3)C2=O)CC1.Cl (racemic) |
| 205 °C (dec.) | CN1CCN(c2cccc(C(F)(F)F)c2C=C2OCCN(c3ccc(C(C)(C)C)cc3)C2=O)CC1.Cl |
| 161.9 to 163.5 °C | CN1CCN(c2cc(Cl)ccc2CC2OCCN(c3ccc(C(C)(C)C)cc3)C2=O)CC1 (racemic) [Example 27 (±), (±)-4-(4-tert-Butyl-phenyl)-2-[4-chloro-2-(4-methylpiperazin-1-yl)-benzyl]-morpholin-3-one] |
| 155.9 to 159.9 °C | CN1CCN(c2cc(F)ccc2CC2OCCN(c3ccc(C(C)(C)C)cc3)C2=O)CC1.Cl (racemic) [Example 29 (±)] |
| 179 to 180 °C (dec.) | CN1CCN(c2ccccc2CC2OCCN(c3ccc(C(C)(C)C)cc3)C2=O)CC1 (racemic) (as salt: tartrate) [Example 23, (±)-4-(4-tert-Butyl-phenyl)-2-[2-(4-methylpiperazin-1-yl)-benzyl]-morpholin-3-one] |
| 167 to 168 °C | CC1CN(c2ccccc2C=C2OCCN(c3ccc(C(C)(C)C)cc3)C2=O)CC(C)N1C (stereo not drawn) [Example 6, 2-[2-(3,4,5-Trimethylpiperazin-1-yl)-benzylidene]-4-(4-tert-butylphenyl)-morpholin-3-one] |
| 92 to 93 °C | Cc1ccc(N2CCN(C)CC2)c(CC2OCCN(c3ccc(C(C)(C)C)cc3)C2=O)c1 (single isomer, unassigned; (+)) [Example 31 (+), (+)-4-(4-tert-Butyl-phenyl)-2-[5-methyl-2-(4-methylpiperazin-1-yl)-benzyl]-morpholin-3-one] |
| 187.5 to 192.6 °C | CN1CCN(c2cccc(F)c2C=C2OCCN(c3ccc(C(C)(C)C)cc3)C2=O)CC1.Cl |
| 136 to 138 °C | CN1CCN(c2ccc(C(F)(F)F)cc2CC2OCCN(c3ccc(C(C)(C)C)cc3)C2=O)CC1.Cl (stereo not drawn) [Example 32 (+)] |
| 176.9 to 179.3 °C | CN1CCN(c2cccc(F)c2CC2OCCN(c3ccc(C(C)(C)C)cc3)C2=O)CC1.Cl (stereo not drawn) [Example 28 (+)] |
| 209 to 210.8 °C | CN1CCN(c2cc(Cl)ccc2C=C2OCCN(c3ccc(C(C)(C)C)cc3)C2=O)CC1 [Example 10, 4-(4-tert-Butyl-phenyl)-2-[4-chloro-2-(4-methylpiperazin-1-yl)-benzylidene]-morpholin-3-one] |
| 165.8 to 171.2 °C | CN1CCN(c2ccccc2CC2OCCN(c3ccc(C(C)(C)C)cc3)C2=O)CC1.Cl (single isomer, unassigned) [Example 24 (+)] |
| 157.4 to 159.6 °C | CN1CCN(c2cc(F)ccc2CC2OCCN(c3ccc(C(C)(C)C)cc3)C2=O)CC1.Cl (stereo not drawn) [Example 29 (+)] |
| 86 to 88 °C | Cc1ccc(N2CCN(C)CC2)c(CC2OCCN(c3ccc(C(C)(C)C)cc3)C2=O)c1 (single isomer, unassigned; (-)) [Example 31 (−), (−)-4-(4-tert-Butyl-phenyl)-2-[5-methyl-2-(4-methylpiperazin-1-yl)-benzyl]-morpholin-3-one] |
| 135 °C (dec.) | CC1CN(c2ccccc2CC2OCCN(c3ccc(C(C)(C)C)cc3)C2=O)CC(C)N1C.Cl (racemic) |

| melting point | SMILES |
| --- | --- |
| 155 to 156 °C | CC(C)c1ccc(N2CCOC(=Cc3ccccc3N3CCN(C)CC3)C2=O)cc1 [Example 3, 2-[2-(4-Methylpiperazin-1-yl)-benzylidene]-4-(4-isopropylphenyl)-morpholin-3-one] |
| 186.3 to 191.9 °C | CN1CCN(c2cc(C(F)(F)F)ccc2C=C2OCCN(c3ccc(C(C)(C)C)cc3)C2=O)CC1 [Example 14, 4-(4-tert-Butyl-phenyl)-2-[2-(4-methylpiperazin-1-yl)-4-trifluoromethyl-benzylidene]-morpholin-3-one] |
| 159 to 161.8 °C | CN1CCN(c2cc(Cl)ccc2CC2OCCN(c3ccc(C(C)(C)C)cc3)C2=O)CC1.Cl (stereo not drawn) [Example 27 (−)] |
| 215 °C (dec.) | CN1CCN(c2cccc(Cl)c2CC2OCCN(c3ccc(C(C)(C)C)cc3)C2=O)CC1.Cl (racemic) |
| 184.3 to 187.1 °C | CN1CCN(c2c(F)cccc2C=C2OCCN(c3ccc(C(C)(C)C)cc3)C2=O)CC1 [Example 12, 4-(4-tert-Butyl-phenyl)-2-[3-fluoro-2-(4-methylpiperazin-1-yl)-benzylidene]-morpholin-3-one] |
| 185.7 to 188.1 °C | CC(C)c1ccc(N2CCOC(Cc3ccccc3N3CCN(C)CC3)C2=O)cc1.Cl (racemic) |
| 128 to 130 °C | CN1CCN(c2ccc(C(F)(F)F)cc2CC2OCCN(c3ccc(C(C)(C)C)cc3)C2=O)CC1.Cl (stereo not drawn) [Example 32 (−)] |
| 156.2 to 158.1 °C | CN1CCN(c2cc(F)ccc2CC2OCCN(c3ccc(C(C)(C)C)cc3)C2=O)CC1.Cl (stereo not drawn) [Example 29 (−)] |
| 68 to 70 °C | CN1CCN(c2ccccc2C=C2OCCN(Cc3ccc(C(C)(C)C)cc3)C2=O)CC1 [Example 20, 4-(4-tert-Butyl-benzyl)-2-[2-(4-methylpiperazin-1-yl)-benzylidene]-morpholin-3-one] |
| 219.4 to 222.2 °C | CN1CCN(c2ccccc2CC2OCCN(c3ccc(-c4ccccc4)cc3)C2=O)CC1.Cl (racemic) |
| 159.5 to 161.7 °C | CN1CCN(c2cc(Cl)ccc2CC2OCCN(c3ccc(C(C)(C)C)cc3)C2=O)CC1.Cl (stereo not drawn) [Example 27 (+)] |
| 145.1 to 146.2 °C | CN1CCN(c2ccc(C(F)(F)F)cc2CC2OCCN(c3ccc(C(C)(C)C)cc3)C2=O)CC1 (racemic) [Example 32 (±), (±)-4-(4-tert-Butyl-phenyl)-2-[2-(4-methylpiperazin-1-yl)-5-trifluoromethyl-benzyl]-morpholin-3-one] |
| 190.5 to 192.1 °C | CN1CCN(c2cccc(F)c2CC2OCCN(c3ccc(C(C)(C)C)cc3)C2=O)CC1.Cl (racemic) [Example 28 (±)] |
| 139 to 142 °C | CN1CCN(c2cccc(Cl)c2C=C2OCCN(c3ccc(C(C)(C)C)cc3)C2=O)CC1.Cl |
| 104.7 °C (dec.) | CN1CCN(c2c(F)cccc2CC2OCCN(c3ccc(C(C)(C)C)cc3)C2=O)CC1.Cl (stereo not drawn) [Example 30 (+)] |
| 187.1 to 191.2 °C | CN1CCN(c2ccccc2CC2OCCN(c3ccc(C(C)(C)C)cc3)C2=O)CC1.Cl (single isomer, unassigned) [Example 24 (−)] |
| 209.2 to 211 °C | Cc1ccc(N2CCN(C)CC2)c(C=C2OCCN(c3ccc(C(C)(C)C)cc3)C2=O)c1 [Example 15, 4-(4-tert-Butyl-phenyl)-2-[5-methyl-2-(4-methylpiperazin-1-yl)-benzylidene]-morpholin-3-one] |
| 128.5 to 129.9 °C | CN1CCN(c2c(F)cccc2CC2OCCN(c3ccc(C(C)(C)C)cc3)C2=O)CC1.Cl (stereo not drawn) [Example 30 (−)] |
